Test results taken from the NIST ThermoML archive (doi:10.1021/je050170x).

Columns and labels:
[1] = for surface tension liquid-gas: Wilhelmy-plate method; for mass density / viscosity: 101.33 kPa, Liquid; for viscosity: Capillary tube (Ostwald / Ubbelohde) method
[2] = refractive index (Na D-line) (dimensionless); settings: 101.33 kPa, Liquid, Standard Abbe refractometry

CCCC(=O)OCCC(C)C [3-methylbutyl butanoate]
Settings | mass density, [1] [kg/m3] | refractive index, [2] | surface tension liquid-gas, [1] [mN/m] | viscosity, [1] [mPa·s]
288.15 K | 867.72 | 1.41259 | 25.7 | 1.317
298.15 K | 858.69 | 1.40815 | 24.7 | 1.111
308.15 K | 849.62 | 1.40374 | 24 | 0.952
318.15 K | 840.55 | 1.39927 | 23.1 | 0.827
328.15 K | 831.47 | 1.39506 | 22.4 | 0.724
338.15 K | 822.35 | 1.39055 | 21.6 | 0.641
348.15 K | 813.19 | 1.386 | 20.5 | 0.573
358.15 K | 803.96 | 1.38139 | 19.7 | 0.511

CC(=O)OCCC(C)C [3-methylbutyl ethanoate]
Settings | mass density, [1] [kg/m3] | refractive index, [2] | surface tension liquid-gas, [1] [mN/m] | viscosity, [1] [mPa·s]
288.15 K | 877.72 | 1.40288 | 25.4 | 0.94
298.15 K | 867.91 | 1.39836 | 24.3 | 0.804
308.15 K | 858.07 | 1.39365 | 23.4 | 0.704
318.15 K | 848.17 | 1.38895 | 22.4 | 0.627
328.15 K | 838.22 | 1.38447 | 21.6 | 0.559
338.15 K | 828.19 | 1.37971 | 20.6 | 0.484
348.15 K | 818.07 | 1.37487 | 19.6 | 0.434
358.15 K | 807.85 | 1.36995 | 18.7 | 0.39

CC(=O)OCc1ccccc1 [benzyl ethanoate]
Settings | mass density, [1] [kg/m3] | refractive index, [2] | surface tension liquid-gas, [1] [mN/m] | viscosity, [1] [mPa·s]
288.15 K | 1060.11 | 1.50439 | 37.7 | 2.53
298.15 K | 1050.75 | 1.49982 | 36.4 | 2.056
308.15 K | 1041.39 | 1.49539 | 35.3 | 1.703
318.15 K | 1032.03 | 1.49064 | 34.1 | 1.432
328.15 K | 1022.67 | 1.48623 | 33.2 | 1.229
338.15 K | 1013.29 | 1.48157 | 32.2 | 1.059
348.15 K | 1003.89 | 1.47701 | 31.1 | 0.941
358.15 K | 994.45 | 1.47233 | 30.1 | 0.826

CCC(=O)OCc1ccccc1 [benzyl propanoate]
Settings | mass density, [1] [kg/m3] | refractive index, [2] | surface tension liquid-gas, [1] [mN/m] | viscosity, [1] [mPa·s]
288.15 K | 1036.86 | 1.4995 | 36 | 2.55
298.15 K | 1027.6 | 1.49498 | 34.8 | 2.123
308.15 K | 1018.38 | 1.49074 | 33.6 | 1.787
318.15 K | 1009.15 | 1.48611 | 32.4 | 1.515
328.15 K | 999.93 | 1.48171 | 31.6 | 1.294
338.15 K | 990.72 | 1.47711 | 30.5 | 1.114
348.15 K | 981.49 | 1.47252 | 29.5 | 0.964
358.15 K | 972.25 | 1.46768 | 28.5 | 0.84

CCOC(=O)c1ccccc1O [ethyl 2-hydroxybenzoate]
Settings | mass density, [1] [kg/m3] | refractive index, [2] | surface tension liquid-gas, [1] [mN/m] | viscosity, [1] [mPa·s]
288.15 K | 1134.72 | 1.52481 | 37.5 | 3.694
298.15 K | 1125 | 1.52022 | 36.3 | 2.831
308.15 K | 1115.29 | 1.51573 | 35.2 | 2.253
318.15 K | 1105.6 | 1.51116 | 34.4 | 1.842
328.15 K | 1095.94 | 1.50646 | 33.4 | 1.53
338.15 K | 1086.24 | 1.50191 | 32 | 1.305
348.15 K | 1076.6 | 1.49744 | 31 | 1.126
358.15 K | 1066.83 | 1.49296 | 30.2 | 0.984

CCOC(=O)CC(C)C [ethyl 3-methylbutanoate]
Settings | mass density, [1] [kg/m3] | refractive index, [2] | surface tension liquid-gas, [1] [mN/m] | viscosity, [1] [mPa·s]
288.15 K | 869.66 | 1.3988 | 24.4 | 0.853
298.15 K | 859.78 | 1.39401 | 23.5 | 0.739
308.15 K | 849.83 | 1.38931 | 22.5 | 0.642
318.15 K | 839.81 | 1.38458 | 21.6 | 0.566
328.15 K | 829.71 | 1.37978 | 20.7 | 0.504
338.15 K | 819.52 | 1.37492 | 19.6 | 0.452
348.15 K | 809.2 | 1.37002 | 18.7 | 0.408
358.15 K | 798.73 | 1.36524 | 17.6 | 0.367

CCOC(=O)CC(C)=O [ethyl 3-oxobutanoate]
Settings | mass density, [1] [kg/m3] | refractive index, [2] | surface tension liquid-gas, [1] [mN/m] | viscosity, [1] [mPa·s]
288.15 K | 1033.92 | 1.42091 | 33.3 | 1.902
298.15 K | 1023.45 | 1.41658 | 32.3 | 1.581
308.15 K | – | 1.41246 | 31.1 | 1.344
318.15 K | – | 1.40803 | 30 | 1.144
328.15 K | 992.26 | 1.40386 | 29.1 | 0.981
338.15 K | 981.58 | 1.39949 | 28.2 | 0.847
348.15 K | 971.05 | 1.3951 | 27 | 0.736
358.15 K | 960.46 | 1.39061 | 26.1 | 0.644

CCOC(=O)c1ccccc1 [ethyl benzoate]
Settings | mass density, [1] [kg/m3] | refractive index, [2] | surface tension liquid-gas, [1] [mN/m] | viscosity, [1] [mPa·s]
288.15 K | 1050.78 | 1.5076 | 35.7 | 2.444
298.15 K | 1041.42 | 1.50328 | 34.6 | 1.971
308.15 K | 1032.07 | 1.49863 | 33.3 | 1.623
318.15 K | 1022.73 | 1.49391 | 32.5 | 1.368
328.15 K | 1013.4 | 1.48946 | 31.5 | 1.169
338.15 K | 1004.06 | 1.4847 | 30.2 | 1.016
348.15 K | 994.7 | 1.48004 | 29.3 | 0.89
358.15 K | 985.31 | 1.47526 | 28.4 | 0.784

CCCCCC(=O)OCC [ethyl hexanoate]
Settings | mass density, [1] [kg/m3] | refractive index, [2] | surface tension liquid-gas, [1] [mN/m] | viscosity, [1] [mPa·s]
288.15 K | 875.64 | 1.4095 | 26.4 | 1.102
298.15 K | 866.29 | 1.40504 | 25.4 | 0.94
308.15 K | 856.91 | 1.40055 | 24.5 | 0.814
318.15 K | 847.5 | 1.39597 | 23.6 | 0.711
328.15 K | 838.05 | 1.39164 | 22.7 | 0.63
338.15 K | 828.55 | 1.38705 | 21.8 | 0.562
348.15 K | 818.99 | 1.38239 | 21 | 0.504
358.15 K | 809.34 | 1.37768 | 20 | 0.452

CCCCCCCC(=O)OCC [ethyl octanoate]
Settings | mass density, [1] [kg/m3] | refractive index, [2] | surface tension liquid-gas, [1] [mN/m] | viscosity, [1] [mPa·s]
288.15 K | 870.79 | 1.41991 | 27.2 | 1.697
298.15 K | 862.15 | 1.4156 | 26.4 | 1.411
308.15 K | 853.52 | 1.41137 | 25.5 | 1.193
318.15 K | 844.87 | 1.40702 | 24.7 | 1.027
328.15 K | 836.21 | 1.40294 | 23.8 | 0.892
338.15 K | 827.53 | 1.39857 | 22.8 | 0.784
348.15 K | 818.58 | 1.39418 | 22 | 0.694
358.15 K | 810.05 | 1.38974 | 21.4 | 0.617
